The test system of test [1] is prostatic tumor R-3327-H according to Dunning. The test is described as follows: Antagonistic effect on Dunning R-3327-H prostate carcinoma in rats, 30 days. It is filed as in vivo. Conditions: encapsulated 25 micrograms daily i.m. From the text:
(DUNNING R-3327-H PROSTRATE CARCINOMA).

Test [2] is described as follows: Body and organ weights of the rats bearing the Dunning R-3327-H tumor. The conditions noted are these: 30 days, encapsulated 25 micrograms daily i.m.
Procedure: In vivo tests were carried out on groups of 7 to 10 animals during a period of 30 days.
The administration of the non-encapsulated Compound A adequately dissolved in a biocompatible solvent was achieved by the subcutaneous injection of two doses every day, each dose containing 25 micrograms of compound A (Table 2) or 12.5 micrograms of compound A (Table 3).
The administration of the encapsulated compound A was achieved by the daily intra-muscular injection of doses of the preparation suspended in a biocompatible solvent, each such dose containing 25 micrograms of compound A.
[3] abbreviates: Table 2, non-encapsulated 2 x 25 micrograms/day s.c.
The mark [4] stands for this setting: Table 3, non-encapsulated 2 x 12.5 micrograms/day s.c.

The structures appear in SMILES notation.

As for `CC(C)C[C@H](NC(=O)[C@@H](Cc1c[nH]c2ccccc12)NC(=O)[C@H](Cc1ccc(O)cc1)NC(=O)[C@H](CO)NC(=O)[C@H](Cc1c[nH]c2ccccc12)NC(=O)[C@H](Cc1c[nH]cn1)NC(=O)[C@@H]1CCC(=O)N1)C(=O)N[C@@H](CCCNC(=N)N)C(=O)N1CCC[C@H]1C(=O)NCC(N)=O` [Compound A non-encapsulated, (pyro) Glu-His-Trp-Ser-Tyr-D-Trp-Leu-Arg-Pro-Gly-NH2], the “Increase of tumor volume” value in test [1] (setting [3]) is listed as 85 + 19%; in test [1] (setting [4]), 110 + 28%. The entries for the “Tumor (Dunning R3327-H Prostate Carcinoma)” value in test [1] (setting [3]) and in test [1] (setting [4]) were 546 + 0.14 mg and 260 + 68 mg, respectively. In addition, the figures for the Testicles in test [2] (setting [3]) and in test [2] (setting [4]) were 1.36 ± 0.14 g and 1.83 ± 0.07 g, respectively. For the same molecule, the “Ventral portion of prostate” value in test [2] (setting [3]) is 54 + 5 mg; in test [2] (setting [4]), 88 + 7 mg.

The record behind these values is patent US4835139A, “Process for increasing the antagonistic effect of peptidic compounds on hormone-dependent diseases” (Debiopharm S.A., priority 1983, dated 1989).
